From PubChem BioAssay AID1918931 (Molecular Pharmacology Branch, DTP, NCI, 2023)

Tested on: 138582-337-R-J1-PDC complex spheroid viability
Test: Anticancer human tumor 138582-337-R-J1-PDC patient-derived Merkel cell tumor cell line growth inhibition
Conditions: for IC50: curve of first compound; for viability, T/C: stronger effect = lower value
How it was run: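 Multicellular complex spheroids of tumor cells with human endothelial cells (HUVEC) and mesenchymal stem cells; the LSD1 inhibitor iadademstat was combined with standard-of-care or investigational agents. Top concentration at or near clinical Cmax, half-log dilutions; final DMSO ≤0.25%.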

[1] = second compound 0.1 µM, first compound 0.00949 µM
[2] = second compound 0.1 µM, first compound 0.03 µM
[3] = second compound 0.1 µM, first compound 0.0949 µM
[4] = second compound 0.1 µM, first compound 0.3 µM
[5] = second compound 0.1 µM, first compound 0.949 µM
[6] = second compound 0.1 µM, first compound 3 µM
[7] = second compound 0.316 µM, first compound 0.00949 µM
[8] = second compound 0.316 µM, first compound 0.03 µM
[9] = second compound 0.316 µM, first compound 0.0949 µM
[10] = second compound 0.316 µM, first compound 0.3 µM
[11] = second compound 0.316 µM, first compound 0.949 µM
[12] = second compound 0.316 µM, first compound 3 µM
[13] = second compound 1 µM, first compound 0.00949 µM
[14] = second compound 1 µM, first compound 0.03 µM
[15] = second compound 1 µM, first compound 0.0949 µM
[16] = second compound 1 µM, first compound 0.3 µM
[17] = second compound 1 µM, first compound 0.949 µM
[18] = second compound 1 µM, first compound 3 µM
[19] = second compound 3.16 µM, first compound 0.00949 µM
[20] = second compound 3.16 µM, first compound 0.03 µM
[21] = second compound 3.16 µM, first compound 0.0949 µM
[22] = second compound 3.16 µM, first compound 0.3 µM
[23] = second compound 3.16 µM, first compound 0.949 µM
[24] = second compound 3.16 µM, first compound 3 µM
[25] = second compound 10 µM, first compound 0.00949 µM
[26] = second compound 10 µM, first compound 0.03 µM
[27] = second compound 10 µM, first compound 0.0949 µM
[28] = second compound 10 µM, first compound 0.3 µM
[29] = second compound 10 µM, first compound 0.949 µM
[30] = second compound 10 µM, first compound 3 µM
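Note: spheroids exposed to agents for 7 days.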
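Throughout, for viability, T/C: 100% = DMSO vehicle control viability.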

## COc1cc(C2c3cc4c(cc3C(OC3OC5COC(C)OC5C(O)C3O)C3COC(=O)C23)OCO4)cc(OC)c1O (stereo not given) + NC1CC1c1ccc(-c2cccc(O)c2)cc1
Second compound 0.1 µM
  IC50: 762 nM
Second compound 0.316 µM
  IC50: 690 nM
Second compound 1 µM
  IC50: 559 nM
Second compound 3.16 µM
  IC50: 767 nM
Second compound 10 µM
  IC50: 265 nM
[1]
  viability, T/C: 60.8%
[2]
  viability, T/C: 72.3%
[3]
  viability, T/C: 63%
[4]
  viability, T/C: 48.5%
[5]
  viability, T/C: 52.9%
[6]
  viability, T/C: 36.7%
[7]
  viability, T/C: 67.1%
[8]
  viability, T/C: 69.8%
[9]
  viability, T/C: 63.1%
[10]
  viability, T/C: 51.1%
[11]
  viability, T/C: 52.3%
[12]
  viability, T/C: 29.9%
[13]
  viability, T/C: 76.8%
[14]
  viability, T/C: 75.9%
[15]
  viability, T/C: 60.6%
[16]
  viability, T/C: 53.2%
[17]
  viability, T/C: 45%
[18]
  viability, T/C: 40.7%
[19]
  viability, T/C: 69.7%
[20]
  viability, T/C: 75.9%
[21]
  viability, T/C: 65.9%
[22]
  viability, T/C: 51.8%
[23]
  viability, T/C: 53.1%
[24]
  viability, T/C: 31.6%
[25]
  viability, T/C: 71.2%
[26]
  viability, T/C: 77.3%
[27]
  viability, T/C: 58.4%
[28]
  viability, T/C: 50.1%
[29]
  viability, T/C: 41.4%
[30]
  viability, T/C: 37%

## O=C(c1cc(Cc2n[nH]c(=O)c3ccccc23)ccc1F)N1CCN(C(=O)C2CC2)CC1 + NC1CCC(NC2CC2c2ccccc2)CC1
Second compound 0.1 µM
  IC50: > 10000 nM
Second compound 0.316 µM
  IC50: > 10000 nM
Second compound 1 µM
  IC50: > 10000 nM
Second compound 3.16 µM
  IC50: > 10000 nM
Second compound 10 µM
  IC50: > 10000 nM
Second compound 0.1 µM, first compound 0.0316 µM
  viability, T/C: 102%
Second compound 0.1 µM, first compound 0.1 µM
  viability, T/C: 91.2%
Second compound 0.1 µM, first compound 0.316 µM
  viability, T/C: 86.7%
Second compound 0.1 µM, first compound 1 µM
  viability, T/C: 92.7%
Second compound 0.1 µM, first compound 3.16 µM
  viability, T/C: 84.3%
Second compound 0.1 µM, first compound 10 µM
  viability, T/C: 95.7%
Second compound 0.316 µM, first compound 0.0316 µM
  viability, T/C: 99.6%
Second compound 0.316 µM, first compound 0.1 µM
  viability, T/C: 99.9%
Second compound 0.316 µM, first compound 0.316 µM
  viability, T/C: 88.1%
Second compound 0.316 µM, first compound 1 µM
  viability, T/C: 85.8%
Second compound 0.316 µM, first compound 3.16 µM
  viability, T/C: 80.1%
Second compound 0.316 µM, first compound 10 µM
  viability, T/C: 103%
Second compound 1 µM, first compound 0.0316 µM
  viability, T/C: 102%
Second compound 1 µM, first compound 0.1 µM
  viability, T/C: 98.1%
Second compound 1 µM, first compound 0.316 µM
  viability, T/C: 92.5%
Second compound 1 µM, first compound 1 µM
  viability, T/C: 81.1%
Second compound 1 µM, first compound 3.16 µM
  viability, T/C: 79%
Second compound 1 µM, first compound 10 µM
  viability, T/C: 104%
Second compound 3.16 µM, first compound 0.0316 µM
  viability, T/C: 83.8%
Second compound 3.16 µM, first compound 0.1 µM
  viability, T/C: 98.3%
Second compound 3.16 µM, first compound 0.316 µM
  viability, T/C: 113%
Second compound 3.16 µM, first compound 1 µM
  viability, T/C: 76.5%
Second compound 3.16 µM, first compound 3.16 µM
  viability, T/C: 86.7%
Second compound 3.16 µM, first compound 10 µM
  viability, T/C: 75.7%
Second compound 10 µM, first compound 0.0316 µM
  viability, T/C: 78.5%
Second compound 10 µM, first compound 0.1 µM
  viability, T/C: 104%
Second compound 10 µM, first compound 0.316 µM
  viability, T/C: 77.7%
Second compound 10 µM, first compound 1 µM
  viability, T/C: 74.1%
Second compound 10 µM, first compound 3.16 µM
  viability, T/C: 79.6%
Second compound 10 µM, first compound 10 µM
  viability, T/C: 63.7%

## Nc1ccccc1NC(=O)c1ccc(CNC(=O)OCc2cccnc2)cc1 + NC1CCC(NC2CC2c2ccccc2)CC1
Second compound 0.1 µM
  IC50: 1100 nM
Second compound 0.316 µM
  IC50: 1100 nM
Second compound 1 µM
  IC50: 1020 nM
Second compound 3.16 µM
  IC50: 1010 nM
Second compound 10 µM
  IC50: 138 nM
[1]
  viability, T/C: 103%
[2]
  viability, T/C: 81.7%
[3]
  viability, T/C: 83.9%
[4]
  viability, T/C: 101%
[5]
  viability, T/C: 57.1%
[6]
  viability, T/C: 1.81%
[7]
  viability, T/C: 88.8%
[8]
  viability, T/C: 76.8%
[9]
  viability, T/C: 79.5%
[10]
  viability, T/C: 86.1%
[11]
  viability, T/C: 57%
[12]
  viability, T/C: 1.94%
[13]
  viability, T/C: 96.1%
[14]
  viability, T/C: 80.2%
[15]
  viability, T/C: 77.3%
[16]
  viability, T/C: 92.5%
[17]
  viability, T/C: 53.5%
[18]
  viability, T/C: 0.81%
[19]
  viability, T/C: 90.5%
[20]
  viability, T/C: 82.3%
[21]
  viability, T/C: 74.5%
[22]
  viability, T/C: 76.4%
[23]
  viability, T/C: 53.5%
[24]
  viability, T/C: 0.82%
[25]
  viability, T/C: 74.2%
[26]
  viability, T/C: 57.8%
[27]
  viability, T/C: 62.2%
[28]
  viability, T/C: 35.4%
[29]
  viability, T/C: 17.7%
[30]
  viability, T/C: 0.52%
